Measurements from the OPERA property sets (Mansouri et al. 2018).

SMILES | logP
CC(C)OC(=O)CSc1ccccc1[N+](=O)[O-] | 2.76
CC(C)OC(=O)CS(=O)c1ccc([N+](=O)[O-])cc1[N+](=O)[O-] (configuration not stated) | 1.61
COC(=O)CS(=O)c1ccccc1[N+](=O)[O-] (configuration not stated) | 0.74
CC(C)OC(=O)CS(=O)(=O)c1ccc([N+](=O)[O-])cc1 | 1.8
COC(=O)CS(=O)(=O)c1ccccc1[N+](=O)[O-] | 0.78
COC(=O)CS(=O)c1ccc([N+](=O)[O-])cc1 (configuration not stated) | 0.8
CC(C)OC(=O)CS(=O)(=O)c1ccccc1[N+](=O)[O-] | 1.72
CC(C)OC(=O)CS(=O)c1ccc([N+](=O)[O-])cc1 (configuration not stated) | 1.64
CC(C)OC(=O)CSc1ccc([N+](=O)[O-])cc1 | 2.79
CC(C)OC(=O)CS(=O)c1ccccc1[N+](=O)[O-] (configuration not stated) | 1.59
COC(=O)CS(=O)(=O)c1ccc([N+](=O)[O-])cc1 | 0.78
CC(C)OC(=O)CS(=O)(=O)c1ccc([N+](=O)[O-])cc1Cl | 2.4
COC(=O)CS(=O)c1ccc([N+](=O)[O-])cc1Cl (configuration not stated) | 1.35
COC(=O)CS(=O)(=O)c1ccc([N+](=O)[O-])cc1Cl | 1.45
CC(C)OC(=O)CS(=O)c1ccc([N+](=O)[O-])cc1Cl (configuration not stated) | 2.01
COC(=O)CS(=O)c1ccc([N+](=O)[O-])cc1[N+](=O)[O-] (configuration not stated) | 0.63
CC(C)OC(=O)CS(=O)(=O)c1ccc(Cl)cc1[N+](=O)[O-] | 2.45

More lines, now with the values ahead:

logP | SMILES
2.81 | CC(C)OC(=O)CSc1ccc([N+](=O)[O-])cc1[N+](=O)[O-]
1.88 | COC(=O)CSc1ccccc1[N+](=O)[O-]
3 | CC(C)OC(=O)CSc1ccc(Cl)cc1[N+](=O)[O-]
3.2 | CC(C)OC(=O)CSc1ccc([N+](=O)[O-])cc1Cl
2.22 | CC(C)OC(=O)CS(=O)c1ccc(Cl)cc1[N+](=O)[O-] (configuration not stated)
1.3 | COC(=O)CS(=O)(=O)c1ccc(Cl)cc1[N+](=O)[O-]
2.26 | COC(=O)CSc1ccc([N+](=O)[O-])cc1Cl
1.29 | COC(=O)CS(=O)c1ccc(Cl)cc1[N+](=O)[O-] (configuration not stated)
2.24 | COC(=O)CSc1ccc(Cl)cc1[N+](=O)[O-]
2.05 | COC(=O)CSc1ccc([N+](=O)[O-])cc1[N+](=O)[O-]
